What all share (format): cell-based, Human
The test system of one experiment is HT-29 tumor cells. Kind of experiment: Cell growth inhibition assay (CellTiter-Glo), HT-29. Particulars: Homo sapiens. A digest of the protocol:
(§1)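 Readout was CellTiter-Glo luminescence (total ATP, surrogate for cell number) after 3-day exposure at 37° C, 5% CO2 to 1:3 serial compound dilutions in 0.2% final DMSO. Seeding was 500 cells/well; IC50 derived by 4-parameter fit relative to vehicle-treated wells.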
In general terms: Cellular ATP, detected with luciferase, serves as a proxy for viable cell number.

In the next experiment the test system is HN5 tumor cells. The experiment is described as follows: Cell growth inhibition assay (CellTiter-Glo), HN5. To be noted: Homo sapiens, 72 h; 3 days incubation. A digest of the protocol:
as §1

The next experiment has as its system Colo205 tumor cells. The experiment is described as follows: Cell growth inhibition assay (CellTiter-Glo), Colo205. Particulars: Homo sapiens, COLO 205, 72 h; 3 days incubation. In short, it runs like this: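 Cells plated at 500 cells/well in their growth media, dosed next day with nine-step 1:3 compound dilutions (final DMSO 0.2%), then incubated 3 days at 37° C, 5% CO2. Total ATP read by CellTiter-Glo luminescence as a surrogate for cell number; IC50 interpolated from 4-parameter fit versus DMSO controls.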

In general, IC50 refers to the concentration that inhibits the measured activity by half. Read a high IC50 as weaker potency.

Bounds are passed on as bounds.

Turning to `CC(C)c1nc(-c2cccc(NS(=O)(=O)c3ccccc3)c2)c(-c2ccnc(Nc3ccc(N4CCOCC4)cn3)n2)s1` [Example 92], the half-inhibitory concentration (IC50) is greater than 1 µM in the experiment on HT-29 tumor cells, 0.1 to 1 µM in the experiment on HN5 tumor cells and 0.1 to 1 µM in the experiment with Colo205 tumor cells.

`CC(C)c1nc(-c2cccc(NS(=O)(=O)c3ccccc3)c2)c(-c2ccnc(Nc3ccc(CC4CCN(CCS(C)(=O)=O)CC4)c(F)c3)n2)s1` [Example 72]: the IC50 in the experiment on HT-29 tumor cells, with HN5 tumor cells and in the experiment on Colo205 tumor cells was 0.1 to 1 µM each time.

In the case of `CC(C)c1nc(-c2cc(F)cc(NS(=O)(=O)c3c(F)cccc3F)c2)c(-c2ccnc(Nc3ccc(N4CCOCC4)nc3)n2)s1` [Example 84], the IC50 was less than 0.1 µM in the experiment on HT-29 tumor cells, 0.1 to 1 µM with HN5 tumor cells and less than 0.1 µM in the experiment on Colo205 tumor cells.

For `CC(C)c1nc(-c2cccc(NS(=O)(=O)c3ccccc3)c2)c(-c2ccnc(Nc3ccc(N4CCN(CCS(C)(=O)=O)CC4)c(F)c3F)n2)s1` [Example 74], the IC50 is greater than 1 µM with HT-29 tumor cells, greater than 1 µM with HN5 tumor cells and 0.1 to 1 µM with Colo205 tumor cells.

For the compound `CC(C)c1nc(-c2cccc(NS(=O)(=O)c3c(F)cccc3F)c2)c(-c2ccnc(Nc3ccc(N4CC[C@@H](O)C4)nc3)n2)s1` [Example 89], the IC50 with HT-29 tumor cells was greater than 1 µM; with HN5 tumor cells, 0.1 to 1 µM; in the experiment with Colo205 tumor cells, less than 0.1 µM.

Take `CC(C)c1nc(-c2cc(F)cc(NS(=O)(=O)c3c(F)cccc3F)c2)c(-c2ccnc(Nc3ccc(N4CCOCC4)c(F)c3)n2)s1` [Example 85]: the results for the IC50 in the experiment on HT-29 tumor cells, in the experiment with HN5 tumor cells and in the experiment with Colo205 tumor cells were 0.1 to 1 µM, 0.1 to 1 µM and less than 0.1 µM, respectively.

For `CC(C)c1nc(-c2cccc(NS(=O)(=O)c3c(F)cccc3F)c2)c(-c2ccnc(Nc3ccc(N4CCCN(CCS(C)(=O)=O)CC4)nc3)n2)s1` [Example 88], the half-inhibitory concentration (IC50) in the experiment with HT-29 tumor cells is less than 0.1 µM; with HN5 tumor cells, 0.1 to 1 µM; in the experiment with Colo205 tumor cells, less than 0.1 µM.

In the case of `CC(C)c1nc(-c2cccc(NS(=O)(=O)c3c(F)cccc3F)c2)c(-c2ccnc(Nc3cccc(N4CCN(C)CC4)c3)n2)s1` [Example 81], the values for the concentration for half-maximal inhibition (IC50) with HT-29 tumor cells, in the experiment with HN5 tumor cells and with Colo205 tumor cells were 0.1 to 1 µM, 0.1 to 1 µM and less than 0.1 µM, respectively.

As to `Cc1cc(N2CCC(N3CCCCC3)CC2)ccc1Nc1nccc(-c2sc(C(C)C)nc2-c2cccc(NS(=O)(=O)c3c(F)cccc3F)c2)n1` [Example 91], the half-inhibitory concentration (IC50) was greater than 1 µM in the experiment with HT-29 tumor cells, greater than 1 µM in the experiment on HN5 tumor cells and less than 0.1 µM with Colo205 tumor cells.

In the case of `COc1cc(N2CCN(CCF)CC2)ccc1Nc1nccc(-c2sc(C(C)C)nc2-c2cccc(NS(=O)(=O)c3c(F)cccc3F)c2)n1` [Example 79], the results for the IC50 in the experiment on HT-29 tumor cells, with HN5 tumor cells and in the experiment with Colo205 tumor cells were 0.1 to 1 µM, greater than 1 µM and 0.1 to 1 µM, respectively.

Regarding `CC(C)c1nc(-c2cccc(NS(=O)(=O)c3c(F)cccc3F)c2)c(-c2ccnc(Nc3cc(F)c(N4CCN(CCS(C)(=O)=O)CC4)cc3F)n2)s1` [Example 87], the concentration for half-maximal inhibition (IC50) was 0.1 to 1 µM in the experiment on HT-29 tumor cells, greater than 1 µM in the experiment with HN5 tumor cells and less than 0.1 µM in the experiment on Colo205 tumor cells.

Consider `CC(C)c1nc(-c2ccc(F)c(NS(=O)(=O)c3c(F)cccc3F)c2)c(-c2ccnc(Nc3ccc(N4CCN(CCS(C)(=O)=O)CC4)c(F)c3)n2)s1` [Example 95], for which the concentration for half-maximal inhibition (IC50) in the experiment with HT-29 tumor cells was greater than 1 µM; with HN5 tumor cells, 0.1 to 1 µM; in the experiment on Colo205 tumor cells, less than 0.1 µM.

As for `CC(C)c1nc(-c2cccc(NS(=O)(=O)c3c(F)cccc3F)c2)c(-c2ccnc(Nc3ccc(N4CCN(CCO)CC4)nc3)n2)s1` [Example 80], the IC50 in the experiment with HT-29 tumor cells is 0.1 to 1 µM; in the experiment with HN5 tumor cells it was 0.1 to 1 µM; in the experiment with Colo205 tumor cells, less than 0.1 µM.

As for `CC(C)c1nc(-c2cc(F)cc(NS(=O)(=O)c3ccc(F)cc3)c2)c(-c2ccnc(Nc3ccc(N4CCOCC4)c(F)c3)n2)s1` [Example 83], the figures for the IC50 with HT-29 tumor cells, with HN5 tumor cells and with Colo205 tumor cells were greater than 1 µM, 0.1 to 1 µM and 0.1 to 1 µM, respectively.

Consider `CC(C)c1nc(-c2cccc(NS(=O)(=O)c3c(F)cccc3F)c2)c(-c2ccnc(Nc3ccc(N4CCCNCC4)nc3)n2)s1` [Example 82], for which the half-inhibitory concentration (IC50) with HT-29 tumor cells is 0.1 to 1 µM; with HN5 tumor cells it was 0.1 to 1 µM; in the experiment with Colo205 tumor cells, less than 0.1 µM.

Turning to `CC(C)c1nc(-c2cccc(NS(=O)(=O)c3ccccc3)c2)c(-c2ccnc(Nc3ccc(F)c(N4CCN(CCS(C)(=O)=O)CC4)c3)n2)s1` [Example 73], the results for the IC50 in the experiment on HT-29 tumor cells, in the experiment on HN5 tumor cells and in the experiment on Colo205 tumor cells were 0.1 to 1 µM, 0.1 to 1 µM and less than 0.1 µM, respectively.

`CC(=O)N1CCN(c2ccc(Nc3nccc(-c4sc(C(C)C)nc4-c4cccc(NS(=O)(=O)c5cc(F)ccc5F)c4)n3)cn2)CC1` [Example 96]: the IC50 in the experiment on HT-29 tumor cells is less than 0.1 µM; in the experiment on HN5 tumor cells, 0.1 to 1 µM; in the experiment on Colo205 tumor cells, less than 0.1 µM.

For `C=C(C)c1nc(-c2cccc(NS(=O)(=O)c3c(F)cccc3F)c2)c(-c2ccnc(Nc3ccc(N4CCN(CCF)CC4)c(F)c3)n2)s1` [Example 93], the values for the IC50 in the experiment on HT-29 tumor cells, in the experiment on HN5 tumor cells and in the experiment with Colo205 tumor cells were greater than 1 µM, greater than 1 µM and less than 0.1 µM, respectively.

On to `CCc1nc(-c2cccc(NS(=O)(=O)c3ccccc3)c2)c(-c2ccnc(Nc3ccc(OC)c(N4CCN(CCS(C)(=O)=O)CC4)c3)n2)s1` [Example 5, N-[3-(2-Ethyl-5-{2-[(4-(methyloxy)-3-{4-[2-(methylsulfonyl)ethyl]-1-piperazinyl}phenyl)amino]-4-pyrimidinyl}-1,3-thiazol-4-yl)phenyl]benzenesulfonamide], for which the IC50 in the experiment on HT-29 tumor cells is less than 0.1 µM; in the experiment on HN5 tumor cells it was 0.1 to 1 µM; in the experiment on Colo205 tumor cells it was less than 0.1 µM.

Regarding `CC(C)c1nc(-c2cccc(NS(=O)(=O)c3c(F)cccc3F)c2)c(-c2ccnc(Nc3ccc(N4CCN(C(C)C)CC4)cc3O)n2)s1` [Example 78], the half-maximal inhibitory concentration (IC50) in the experiment on HT-29 tumor cells was greater than 1 µM; in the experiment with HN5 tumor cells it was greater than 1 µM; in the experiment on Colo205 tumor cells, less than 0.1 µM.

For `CCc1nc(-c2cccc(NS(=O)(=O)c3ccccc3)c2)c(-c2ccnc(Nc3ccc(N4CCOCC4)c(F)c3)n2)s1` [Example 4], the half-maximal inhibitory concentration (IC50) in the experiment on HT-29 tumor cells, with HN5 tumor cells and with Colo205 tumor cells was 0.1 to 1 µM throughout.

Turning to `CC(=O)N1CCc2cc(Nc3nccc(-c4sc(C(C)C)nc4-c4cccc(NS(=O)(=O)c5ccccc5)c4)n3)ccc21` [Example 71], the figures for the IC50 in the experiment with HT-29 tumor cells, with HN5 tumor cells and in the experiment with Colo205 tumor cells were less than 0.1 µM, 0.1 to 1 µM and less than 0.1 µM, respectively.

Turning to `CCc1nc(-c2cccc(NS(=O)(=O)c3ccccc3)c2)c(-c2ccnc(Nc3ccc(N4CCN(C(C)=O)CC4)nc3)n2)s1` [Example 3, N-{3-[5-(2-{[6-(4-Acetyl-1-piperazinyl)-3-pyridinyl]amino}-4-pyrimidinyl)-2-ethyl-1,3-thiazol-4-yl]phenyl}benzenesulfonamide], the IC50 in the experiment on HT-29 tumor cells is 0.1 to 1 µM; in the experiment on HN5 tumor cells it was greater than 1 µM; with Colo205 tumor cells, less than 0.1 µM.
